System: mitochondrial Na+/Ca2+ exchanger
Assay: fura-2 [Ca2+]i plateau after depolarization in intact neurons
Assay type: cell-based, Aquarana catesbeiana

O=C1CSC(c2ccccc2Cl)c2cc(Cl)ccc2N1 (stereo not shown) [CGP, CGP 37157]
IC50: ~560 nM

— paper PMC2217215 (The Journal of General Physiology, 2000)
